# Molecular target: human somatostatin receptor subtype 5 (Homo sapiens, UniProt P35346)
# Test: cAMP assay for SST5R (inhibition of cAMP via human SST5 receptor)
# human somatostatin receptor subtype 5, sequence (P35346 whole entry): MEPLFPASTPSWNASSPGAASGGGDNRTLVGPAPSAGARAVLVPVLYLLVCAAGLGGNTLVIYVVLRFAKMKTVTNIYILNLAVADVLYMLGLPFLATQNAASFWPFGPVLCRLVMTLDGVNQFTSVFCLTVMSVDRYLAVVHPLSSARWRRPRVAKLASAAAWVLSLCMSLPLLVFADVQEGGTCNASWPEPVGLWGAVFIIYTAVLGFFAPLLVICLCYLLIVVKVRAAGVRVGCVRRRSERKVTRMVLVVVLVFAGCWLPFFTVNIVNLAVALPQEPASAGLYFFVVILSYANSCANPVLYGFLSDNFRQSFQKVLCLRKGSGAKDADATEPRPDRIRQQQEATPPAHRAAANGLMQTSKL
row,Structure (SMILES),EC50 [nM]
1,"Cc1cc(F)cc(-c2cncc(-c3nc4cc(F)cc(F)c4[nH]3)c2N2CC(C(N)CO)C2)c1 (stereo not shown) [Compound 1-49, 2-Amino-2-{1-[3-(4,6-difluoro-1H-1,3-benzodiazol-2-yl)-5-(3-fluoro-5-methylphenyl)pyridin-4-yl]azetidin-3-yl}ethan-1-ol]",< 10
2,"Cc1cc(F)cc(-c2cncc(-c3nc4c(F)cc(F)cc4[nH]3)c2N2CC(C)(CN)C2)c1 [Compound 1-50, 1-{1-[3-(4,6-difluoro-1H-1,3-benzodiazol-2-yl)-5-(3-fluoro-5-methylphenyl)pyridin-4-yl]-3-methylazetidin-3-yl}methanamine]",< 10
3,"NCC1CN(c2c(-c3nc4cc(F)cc(F)c4[nH]3)cncc2-c2cccc3ccccc23)C1 [Compound 1-52, 1-{1-[3-(4,6-difluoro-1H-1,3-benzodiazol-2-yl)-5-(naphthalen-1-yl)pyridin-4-yl]azetidin-3-yl}methanamine]",10 to 100
4,"NCC1CN(c2c(-c3cccc(Cl)c3)cncc2-c2nc3c(F)cc(F)cc3[nH]2)C1 [Compound 1-53, 1-{1-[3-(3-chlorophenyl)-5-(4,6-difluoro-1H-1,3-benzodiazol-2-yl)pyridin-4-yl]azetidin-3-yl}methanamine]",< 10
5,"N#Cc1cccc(-c2cncc(-c3nc4c(F)cc(F)cc4[nH]3)c2N2CC(CN)C2)c1 [Compound 1-54, 3-{4-[3-(aminomethyl)azetidin-1-yl]-5-(4,6-difluoro-1H-1,3-benzodiazol-2-yl)pyridin-3-yl}benzonitrile]",< 10
6,"Cc1ccc(-c2cncc(-c3nc4cc(F)cc(F)c4[nH]3)c2N2CC(CN)C2)cc1F [Compound 1-55, 1-{1-[3-(4,6-difluoro-1H-1,3-benzodiazol-2-yl)-5-(3-fluoro-4-methylphenyl)pyridin-4-yl]azetidin-3-yl}methanamine]",10 to 100
7,"Cc1cc(F)cc(-c2cncc(-c3ncc[nH]3)c2N2CC(CN)C2)c1 [Compound 1-56, 1-{1-[3-(3-fluoro-5-methylphenyl)-5-(1H-imidazol-2-yl)pyridin-4-yl]azetidin-3-yl}methanamine]",> 1000
8,"NCC1CN(c2c(-c3nc4cc(F)cc(F)c4[nH]3)cncc2-c2cccc(Cl)c2F)C1 [Compound 1-57, 1-{1-[3-(3-chloro-2-fluorophenyl)-5-(4,6-difluoro-1H-1,3-benzodiazol-2-yl)pyridin-4-yl]azetidin-3-yl}methanamine]",10 to 100
9,"COc1cc(F)cc(-c2cncc(-c3nc4cc(F)cc(F)c4[nH]3)c2N2CC(CN)C2)c1 [Compound 1-58, 1-{1-[3-(4,6-difluoro-1H-1,3-benzodiazol-2-yl)-5-(3-fluoro-5-methoxyphenyl)pyridin-4-yl]azetidin-3-yl}methanamine]",< 10
10,"COc1cc(Cl)cc(-c2cncc(-c3nc4c(F)cc(F)cc4[nH]3)c2N2CC(CN)C2)c1 [Compound 1-59, 1-{1-[3-(3-chloro-5-methoxyphenyl)-5-(4,6-difluoro-1H-1,3-benzodiazol-2-yl)pyridin-4-yl]azetidin-3-yl}methanamine]",< 10
11,"NCC1CN(c2c(-c3cc(Cl)cc(Cl)c3)cncc2-c2nc3cc(F)cc(F)c3[nH]2)C1 [Compound 1-60, 1-{1-[3-(3,5-dichlorophenyl)-5-(4,6-difluoro-1H-1,3-benzodiazol-2-yl)pyridin-4-yl]azetidin-3-yl}methanamine]",< 10
12,"NCC1(F)CN(c2c(-c3cc(F)cc(Cl)c3)cncc2-c2nc3cc(F)cc(F)c3[nH]2)C1 [Compound 1-62, 1-{1-[3-(3-chloro-5-fluorophenyl)-5-(4,6-difluoro-1H-1,3-benzodiazol-2-yl)pyridin-4-yl]-3-fluoroazetidin-3-yl}methanamine]",< 10
13,"CC(N)C1CN(c2c(-c3cc(F)cc(C(F)(F)F)c3)cncc2-c2nc3c(F)cc(F)cc3[nH]2)C1 (stereo not shown) [Compound 1-63, 1-{1-[3-(4,6-difluoro-1H-1,3-benzodiazol-2-yl)-5-[3-fluoro-5-(trifluoromethyl)phenyl]pyridin-4-yl]azetidin-3-yl}ethan-1-amine]",< 10

# Reference: patent US11608335B2, “Somatostatin modulators and uses thereof” (CRINETICS PHARMACEUTICALS, INC., priority 2018, dated 2023)
